The values that follow come from article PMC10287695, “Non-covalent inhibitors of thioredoxin glutathione reductase with schistosomicidal activity in vivo” (Nature Communications, 2023).

Assay [1] deals with T1, TGR (Schistosoma mansoni, UniProt Q962Y6, X597U).
T1 construct: made in house
Description: Superoxide production (pyrogallol red). The note with it: replicates. Format: biochemical, S. mansoni. On the procedure: The production of superoxide by TGR was determined by monitoring reaction of superoxide with pyrogallol red[80]. Briefly, a 1 ml reaction mix (500 nM TGR, 100 µM NADPH, and 20–50 µM inhibitor) was incubated at room temperature for 30 min for fast inhibitors, or 2 h for slow inhibitors. For irreversible inhibitor controls TRi-1 (synthesized in house as reported[45]), Stattic (Cayman Chemical), and AF (Cayman Chemical), the samples were desalted using a Zeba spin desalting column. 100 µL of sample was combined with pyrogallol buffer with and without superoxide dismutase (SOD) (50 µM pyrogallol red, 300 µM NADPH; ± 10 units SOD). The reaction was measured at A340 and A540 simultaneously for 2 h.

In assay [2] the test system is S. mansoni adult worms in mice. Kind of assay: Schistosomicidal efficacy in infected mice, adult worms (42 d.p.i.). Type of assay: in vivo. The note with it: for Egg burden, Treated, individual mice / Worm burden, Treated, individual mice: Adult worm; for Egg burden, Treated, individual mice: eggs per 50 mg liver (Fig. 6); for decrease in egg burden / decrease in worm burden: mice. The method, then: (§1) To assess the efficacy of the compounds in vivo against juvenile and adult worms, five female Swiss-Webster mice were randomly assigned for the control and experiment groups using a randomization tool embedded in GraphPad Prism. Mice were percutaneously exposed for 1 h to about 80 S. mansoni cercariae. Three- and six-weeks post infection, respectively, for juvenile and adult worms, mice were treated depending on their weight with formulations of the compounds, while the control mice received only the vehicle. Compounds were formulated with 10% DMSO and 10% Tween-80, and vortexed to obtain a uniform mixture. The mixture was sonicated twice for 5 min each time using a digital ultrasonic cleaner heated to 50 °C. Sodium chloride 0.9% (80% normal saline) was added to the mixture, briefly vortexed and sonicated one more time using the same conditions as previous. The investigators were blinded by which group of mice received a treatment and the vehicle, as injection was done by technicians from the Comparative Research Center of Rush University Medical Center. Using a 26 G, 3/8 in intradermal bevel needle, each mouse was administered intraperitoneally with 100 µl of the formulated compound suspension at 50 mg/kg, 100 mg/kg and 200 mg/kg. Mice treated three weeks post infection for juvenile worms were euthanized three weeks post treatment and mice treated six weeks post infection were euthanized one week post treatment with 0.018 ml of Euthasol and 5.85 mg/ml heparin and perfused. The mesenteric and hepatic portal veins of the mice were carefully scanned under the microscope to extract any remaining S. mansoni adult worms and worm burdens were determined. Egg burden was determined by weighing 50 mg of liver tissue from each of treated and control mice. The liver tissues were digested with 5% KOH at 37 °C overnight and washed twice with PBS. The number of eggs per 50 mg of liver tissue was determined using a Keyence BZ-X800 microscope using the egg autofluorescence.

Assay [3] deals with S. mansoni juvenile worms in mice. Kind of assay: Schistosomicidal efficacy in infected mice, juvenile worms (21 d.p.i.). Type of assay: in vivo. The note with it: for Egg burden, Treated, individual mice / Worm burden, Treated, individual mice: Juvenile worm; for Egg burden, Treated, individual mice: eggs per 50 mg liver (Fig. 6); for decrease in egg burden / decrease in worm burden: mice. The method, then:
as §1

For assay [4], the target named is T1, TGR. Description: NADPH consumption (oxidase activity). Type of assay: biochemical, S. mansoni. The note with it: replicates. The method, then:
TRi-1, Stattic (both at 50 µM) and AF (20 µM) were incubated with 1 ml of 500 nM TGR and 100 µM NADPH in TGR reaction buffer for 30 min. The samples were desalted using a Zeba spin desalting column (Thermo Fisher Scientific) and 100 µl of the desalted sample was combined with 100 µl of 100 µM NADPH. NADPH consumption was monitored at 340 nm in triplicate. Compounds 1, 4, 6, and 7 (50 µM) were tested in the same fashion without the desalting step and with a first incubation step of 30 min for 6 and 7 and 2 h for 1 and 4.

In assay [5] the test system is TGR in newly transformed schistosomula (NTS). Kind of assay: TGR inhibition in NTS with TRFS-Green fluorescent probe. Type of assay: cell-based, S. mansoni. The note with it: for TRFS-Green fluorescence in NTS: 2 h with inhibitor (30 µM; AF 3 µM) then TRFS-Green 10 µM; for production of green fluorescent dye in TRFS-green assay: compound at 5 µM. In short, it runs like this:
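TGR activity in NTS was probed with the fluorescent reagent TRFS-Green. Parasites in M199 medium with glucose, antibiotics and heat-inactivated serum were kept overnight in clear-bottom plates, exposed to 10 µM probe for 4 h, then washed. Signal from probe uptake was read on a microplate imager (ex 438 nm, em 538 nm) hourly for 5 h and after 24 h.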

The target of assay [6] is T2, TGR (Schistosoma mansoni, UniProt Q962Y6).
T2 construct: made in house
T2 sequence (Q962Y6 1-598): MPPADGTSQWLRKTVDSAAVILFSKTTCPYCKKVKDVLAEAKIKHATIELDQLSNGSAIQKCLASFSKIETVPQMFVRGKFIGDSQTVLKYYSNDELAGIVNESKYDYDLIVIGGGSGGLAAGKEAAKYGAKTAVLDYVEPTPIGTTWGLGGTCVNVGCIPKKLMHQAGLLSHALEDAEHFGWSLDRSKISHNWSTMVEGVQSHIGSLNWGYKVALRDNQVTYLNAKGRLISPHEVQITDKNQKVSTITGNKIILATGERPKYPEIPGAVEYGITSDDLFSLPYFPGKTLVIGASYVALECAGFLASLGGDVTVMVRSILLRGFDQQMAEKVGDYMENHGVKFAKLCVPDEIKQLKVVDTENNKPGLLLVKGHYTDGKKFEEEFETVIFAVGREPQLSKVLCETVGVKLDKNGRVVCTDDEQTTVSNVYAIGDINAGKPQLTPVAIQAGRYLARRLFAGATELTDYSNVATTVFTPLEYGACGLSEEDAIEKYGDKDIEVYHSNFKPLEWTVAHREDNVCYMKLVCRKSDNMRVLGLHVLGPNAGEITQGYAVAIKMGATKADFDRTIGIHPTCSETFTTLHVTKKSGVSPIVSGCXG
Kind of assay: NADPH dependence of inhibition. Format: biochemical. More on the design: unit not given here. The note with it: panel b, replicates. The method, then:
TGR was incubated at room temperature with inhibitor in the presence or absence of 100 µM NADPH for 15 min. DTNB (3 mM) and NADPH (100 µM) were added, and the reaction was monitored at A412 for 5 min to determine reaction rate. The assay was done in triplicate.

[7] abbreviates: second of the two columns per substance (condition not given).
Where [8] appears, read: 1 x 100 mg/kg i.p. at 42 d.p.i.
The mark [9] stands for this setting: 2 x 100 mg/kg i.p. (1: bid at 42 d.p.i.; 6: at 42 and 45 d.p.i.).
The mark [10] stands for this setting: 2 x 100 mg/kg at 21 d.p.i. (juvenile worms).
Setting [11] is: 1 x 100 mg/kg, listed as 8VP101.
The mark [12] stands for this setting: 2 x 50 mg/kg i.p. at 42 and 45 d.p.i.
Where [13] appears, read: 1 x 100 mg/kg at 21 d.p.i. (juvenile worms).
[14] abbreviates: 1 x 100 mg/kg, listed as 9VP173.
[15] abbreviates: 1 x 200 mg/kg, listed as 9VP173.
The mark [16] stands for this setting: 1 x 200 mg/kg i.p. at 42 d.p.i.

Several values for one entry are separate records, joined by “and”; a condition that tells them apart may be missing. Equal entries are not always repeated. A value given as a limit tells only on which side of the number the result lay.

By ED50 is commonly meant the dose at which the effect has come halfway, by size or by number of responders.

`Cc1oc(-c2ccc3c(c2)OCO3)nc1CN[C@@H]1C[C@@H]2C[C@H]([C@H]1C)C2(C)C` [Compound 1]: the “Superoxide production, Pyrogallol red consumption monitored ΔA540” value was -0.0003735 and -0.0003395 and -0.0002315 at TGR [1] (condition not given); -9.411e-5 and -9.234e-5 and -8.721e-5 at TGR [1] (setting [7]). Further, the “Egg burden, Treated, individual mice” value in assay [2] (1 x 100 mg/kg, listed as 8VP70) was 1302 and 1436 and 1582 and 1478 and 1434; in assay [2] (2 x 100 mg/kg, listed as 8VP70) it was 1572 and 1426 and 1565 and 1335 and 1329; in assay [3] (2 x 100 mg/kg, listed as 8VP70) it was 1567 and 1683 and 1698 and 1583 and 1670. Further, the “Worm burden, Treated, individual mice” value was 15 and 16 and 12 in assay [2] (1 x 100 mg/kg, listed as 8VP70); 12 and 10 and 9 and 8 in assay [2] (2 x 100 mg/kg, listed as 8VP70); 21 and 22 and 19 and 20 in assay [3] (2 x 100 mg/kg, listed as 8VP70). In addition, the “decrease in egg burden” value in assay [2] (setting [8]) is 40% and 40.5%; in assay [2] (setting [9]), 48% and 47.5%; in assay [3] (setting [10]), 31%. In addition, the “decrease in worm burden” value is 44% and 43.5% in assay [2] (setting [8]); 54% and 53.6% in assay [2] (setting [9]); 28.2% and 28% in assay [3] (setting [10]). In addition, on TGR [4], the “NADPH consumption (rate/ΔOD340)” value is -0.000815 and -0.0007737 and -0.0007308. For the same compound, the “TRFS-Green fluorescence in NTS” value in assay [5] was “significant decreases in fluorescence”. Also, in assay [5], the “production of green fluorescent dye in TRFS-green assay” value is reported as “abolished”.
Turning to `CCc1ccccc1-c1nc(CN[C@@H]2C[C@@H]3C[C@H]([C@H]2C)C3(C)C)c(C)o1` [Compound 2], the “Egg burden, Treated, individual mice” value in assay [2] (setting [11]) is 296 and 301 and 311 and 299 and 321; in assay [2] (2 x 50 mg/kg, listed as 8VP101) it was 319 and 335 and 372 and 393 and 436; in assay [3] (setting [11]), 986 and 1201 and 968 and 1001 and 988. The “Worm burden, Treated, individual mice” value is 8 and 6 and 4 and 5 in assay [2] (setting [11]); 5 and 10 and 8 and 4 and 3 in assay [2] (2 x 50 mg/kg, listed as 8VP101); 12 and 13 and 11 and 8 in assay [3] (setting [11]). The “decrease in egg burden” value was 73% and 73.3% in assay [2] (setting [8]); 69% and 68.8% in assay [2] (setting [12]); 56.7% and 57% in assay [3] (setting [13]). Also, the “decrease in worm burden” value is 85% and 85.2% in assay [2] (setting [8]); 43% and 42.9% in assay [2] (setting [12]); 61.3% and 61% and > 60% in assay [3] (setting [13]). For the same compound, the ED50 in assay [3] (Schistosoma mansoni, 504 h, based on the single dose tested, 21 d.p.i., read-out: estimated ED50 against juvenile worms) was under 100 mg/kg. Further, the “TRFS-Green fluorescence in NTS” value in assay [5] was “significant decreases in fluorescence”. Also, in assay [5], the “production of green fluorescent dye in TRFS-green assay” value was “abolished”.
Take `CC(=O)OC[C@H]1O[C@@H]([S-])[C@H](OC(C)=O)[C@@H](OC(C)=O)[C@@H]1OC(C)=O.CCP(CC)CC.[Au+]` [AF, auranofin, reference compound]: the “Superoxide production, Pyrogallol red consumption monitored ΔA540” value is -0.0001303 and -1.372e-5 at TGR [1] (condition not given); -0.0001254 and 0.0001668 at TGR [1] (setting [7]). Besides, the “NADPH consumption (rate/ΔOD340)” value on TGR [4] is -0.0002869 and -0.0002715 and -0.0002247. In addition, the “TRFS-Green fluorescence in NTS” value in assay [5] is reported as “significant decreases in fluorescence”.
For `C[C@@H]1[C@H]2C[C@@H](C[C@H]1NCc1nc3ccccc3n1C1CCCCCC1)C2(C)C` [Compound 8], the “Egg burden, Treated, individual mice” value in assay [2] (setting [14]) was 2302 and 2373 and 2391 and 2292 and 2275; in assay [2] (setting [15]) it was 2221 and 2235 and 2223 and 2217 and 2241. The “Worm burden, Treated, individual mice” value in assay [2] (setting [14]) is 24 and 25 and 21 and 15; in assay [2] (setting [15]), 24 and 29 and 27 and 28 and 23. For the same compound, the “decrease in egg burden” value was 2.1% in assay [2] (setting [8]); 7% and 6.8% in assay [2] (setting [16]). In addition, the “decrease in worm burden” value in assay [2] (setting [8]) is 13.5%; in assay [2] (setting [16]), 19% and 18.9%. In addition, the “TRFS-Green fluorescence in NTS” value in assay [5] was “significant decreases in fluorescence”. At TGR [6] (preincubation no NADPH), the “Rate, no NADPH” value is 0.045 and 0.0455. At TGR [6] (preincubation with NADPH), the “Rate, with NADPH” value was 0.006 and 0.0015 and 0.0024.
For `C[C@@H]1[C@H]2C[C@@H](C[C@H]1NCc1nc3ccccc3n1C)C2(C)C` [Compound 12], the “TRFS-Green fluorescence in NTS” value in assay [5] was “negligible effects”.
In the case of `Cc1oc(C2CCCCC2)nc1CN[C@@H]1C[C@@H]2C[C@H]([C@H]1C)C2(C)C` [Compound 4], the “Superoxide production, Pyrogallol red consumption monitored ΔA540” value at TGR [1] (condition not given) was -0.0003594 and -0.0003266 and -0.0002925; at TGR [1] (setting [7]) it was -3.468e-5 and -5.202e-5. Moreover, the “NADPH consumption (rate/ΔOD340)” value at TGR [4] was -0.0007477 and -0.0007112 and -0.0007089. Besides, in assay [5], the “TRFS-Green fluorescence in NTS” value is listed as “significant decreases in fluorescence”.
